Measured values taken from patent US20250051355A1, “COMPOUNDS, COMPOSITIONS, AND METHODS” (ACONCAGUA BIO, INC., priority 2023, published 2025).

Columns and labels:
[1] = target: human calcitonin receptor (CTR) and RAMP3 (AMY3) (Homo sapiens, UniProt O60896+P30988); assay: Amylin Receptor cAMP Assay II; format: cell-based; conditions: COS-7/AMY3 cells, cAMP dynamic 2 kit, read-out: Amylin Receptor cAMP Stimulation Activity: EC50
From the text: Amylin Receptor cAMPAssay II
AMYRs are heterodimers of the class B calcitonin (CT) G-protein-coupled receptor (CTR) and receptor activity-modifying proteins (RAMPs). All three RAMPs can interact with the CTR and form AMY1, AMY2, AMY3 with RAMP1, RAMP2 and RAMP3, respectively. Like other class B1 GPCRs, the CT receptor family is canonically coupled to Gs-mediated cAMP production, and measurement of cAMP accumulation has been the primary assay used to determine peptide selectivity and potency.
(§1) To optimize functional activity directed toward Gas coupling, COS-7 cells were stably transfected with human calcitonin receptor (CTR) and RAMP3, simultaneously. 100×concentration of compound working solutions were prepared with 4-fold serial dilution in 384-well Echo LDV plate (Labcyte, Cat #LP-0200-BC). 200 nL/well 100×concentration of compound working solutions were moved to 384-well white microplate (Perkin Elmer, Cat #6007680) using Labcyte ECHO550. […] cells/mL COS-7/AMY3 cell suspensions prepared with assay buffer [HBSS containing 20 mM HEPES (Gibco, Cat #15630-080), 0.5 mM IBMX (Sigma, Cat #15879) and 0.1% Casein (Sigma, Cat #C4765)], 20 μL cell suspensions were added to each well of previous generated assay plate which already contains 200 nL compound at 100×concentration using ThermoFisher Multidrop Combi (2000 cells/well). Seal the plate and incubate at 37° C. with 5% CO2 for 30 min.
(§2) After incubation, the cAMP assay signal was generated using cAMP dynamic 2 kit (Revvity, Cat #62AM4PEC). 10 μL cAMP-d2 working solution was added to each well, followed by 10 μL Anti-cAMP antibody-cryptate working solution which was added to each well using CERTUS FLEX LIQUID DISPENSER The samples were then incubated at room temperature for 1 hour protected from light. the fluorescence was read at 665 and 615 nm with Reader PerkinElmer EnVision 2105.

[2] = target: T1, human calcitonin receptor (CTR) (Homo sapiens, UniProt P30988); assay: Calcitonin receptor (CTR) cAMP Assay; format: cell-based; conditions: COS7-human CTR Clone #2 cells, cAMP dynamic 2 kit; read-out: Calcitonin Receptor cAMP Stimulation Activity: EC50
T1 construct: expressed in transfected cells; host or cells: COS-7 (COS7-human CTR Clone #2)
T1 sequence (P30988 25-474): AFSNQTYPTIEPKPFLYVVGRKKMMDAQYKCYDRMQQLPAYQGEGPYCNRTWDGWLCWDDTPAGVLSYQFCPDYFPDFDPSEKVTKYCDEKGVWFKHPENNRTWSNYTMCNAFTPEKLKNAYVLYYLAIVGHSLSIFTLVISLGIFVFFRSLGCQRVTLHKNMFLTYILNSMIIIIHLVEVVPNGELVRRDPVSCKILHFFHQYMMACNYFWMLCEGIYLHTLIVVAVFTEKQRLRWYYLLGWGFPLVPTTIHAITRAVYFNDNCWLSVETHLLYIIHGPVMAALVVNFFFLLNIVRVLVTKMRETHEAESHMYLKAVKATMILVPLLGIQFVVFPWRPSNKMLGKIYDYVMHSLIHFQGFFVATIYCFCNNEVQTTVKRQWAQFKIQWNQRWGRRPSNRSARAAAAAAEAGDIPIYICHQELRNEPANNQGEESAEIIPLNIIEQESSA
From the text: Calcitonin receptor (CTR) cAMPAssay
The calcitonin receptor (CTR) belongs to the subfamily of GPCRs known as the secretin or ‘B’ family of GPCRs. Like other class B1 GPCRs, the CT receptor family is canonically coupled to Gs-mediated cAMP production, and measurement of cAMP accumulation has been the primary assay used to determine peptide selectivity and potency.
as §1, with “to create COS7-human CTR Clone #2 stable cell line. 100× concentration” for “and RAMP3, simultaneously. 100×concentration”, “COS7-human CTR Clone #2” for “COS-7/AMY3”
as §2, with “#62AM4PEC). […] cAMP-d2 working” for “#62AM4PEC). 10 μL cAMP-d2 working”

Sequence of human calcitonin receptor (CTR) and RAMP3 (AMY3) (O60896 24-148, one chain of several): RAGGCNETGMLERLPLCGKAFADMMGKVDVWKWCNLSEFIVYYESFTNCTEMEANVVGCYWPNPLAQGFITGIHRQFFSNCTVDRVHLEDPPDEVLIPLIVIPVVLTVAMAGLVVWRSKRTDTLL

Row | EC50 [1] | EC50 [2] | SMILES
1 | 270 nM | 9.64 nM | Cc1cnc(-c2c(CCC34CCC(CC3)OC4)nc3c(c2-c2ccc4c(c2)OCC(=O)N4Cc2ccc(F)cn2)c(=O)n2n3CCC2)o1 [Compound 157, 9-(4-[(5-fluoro-2-pyridyl)methyl]-3-oxo-2,4-dihydro-1,4-benzoxazin-7-yl}-10-(5-methyl-1,3-oxazol-2-yl)-11-(2-(2-oxabicyclo[2.2.2]oct-4-yl)ethyl}-2,6,12-triazatricyclo[6.4.0.0^2,6]dodeca-1(12),8,10-trien-7-one]
2 | 216 nM | 5.02 nM | Cc1nnc(-c2c(CCC34CCC(CC3)OC4)nc3c(c2-c2cc4ccnc(N[C@@H]5CCc6ncccc65)c4s2)S(=O)(=O)CC3C(C)C)o1 (stereo partly drawn) [Compound 116, N—(R)-4-aza-1-indanyl(2-[3-isopropyl-6-(5-methyl-1,3,4-oxadiazol-2-yl)-5-(2-(2-oxabicyclo[2.2.2]oct-4-yl)ethyl}-1,1-dioxo-1λ^6-thia-4-aza-7-indanyl]-1-thia-6-aza-7-indenyl}amine]
3 | 4380 nM | 135 nM | COc1nnc(-c2c(CCC3CCOCC3)nc3c(c2-c2cc4ccnc(N[C@@H]5CCc6ncccc65)c4s2)S(=O)(=O)CC3C(C)C)o1 (stereo partly drawn) [Compound 123, N—(R)-4-aza-1-indanyl(2-(3-isopropyl-6-(5-methoxy-1,3,4-oxadiazol-2-yl)-1,1-dioxo-5-[2-(tetrahydro-2H-pyran-4-yl)ethyl]-1λ^6-thia-4-aza-7-indanyl}-1-thia-6-aza-7-indenyl)amine]
4 | 135 nM | 4.15 nM | Cc1nnc(-c2c(CCC3CCOCC3)nc3c(c2-c2ccc4c(c2)oc(=O)n4C(C)c2ccc(C#N)c(F)c2)c(=O)n2n3CCC2)o1 (centres unmarked) [Compound 114, 2-fluoro-4-[1-(6-(10-(5-methyl-1,3,4-oxadiazol-2-yl)-7-oxo-11-[2-(tetrahydro-2H-pyran-4-yl)ethyl]-2,6,12-triazatricyclo[6.4.0.0^2,6]dodeca-1(12),8,10-trien-9-yl}-2-oxo-1,3-benzoxazol-3-yl)ethyl]benzonitrile]
5 | 68.3 nM | 11.6 nM | CC(C)C1CS(=O)(=O)c2c1nc(CCC1CCOCC1)c(-c1nnc[nH]1)c2-c1cc2ccnc(N[C@@H]3CCc4ncccc43)c2s1 (stereo partly drawn) [Compound 119, 7-(7-(((R)-6,7-dihydro-5H-cyclopenta[b]pyridin-5-yl)amino)thieno[2,3-c]pyridin-2-yl)-3-isopropyl-5-(2-(tetrahydro-2H-pyran-4-yl)ethyl)-6-(4H-1,2,4-triazol-3-yl)-2,3-dihydrothieno[3,2-b]pyridine 1,1-dioxide]
6 | 243 nM | 42.2 nM | Cc1nnc(-c2c(CCC3CCOCC3)nc3c(c2-c2cc4ccnc(NCc5cnc(C#N)c(F)c5)c4s2)S(=O)(=O)CC3C(C)C)o1 (centres unmarked) [Compound 133, 3-fluoro-5-[(2-(3-isopropyl-6-(5-methyl-1,3,4-oxadiazol-2-yl)-1,1-dioxo-5-[2-(tetrahydro-2H-pyran-4-yl)ethyl]-1λ^6-thia-4-aza-7-indanyl}-1-thia-6-aza-7-indenylamino)methyl]-2-pyridinecarbonitrile]

Continued, compound first:

Row | SMILES | EC50 [1] | EC50 [2]
7 | Cc1nnc(-c2c(CCC3CCOCC3)nc3c(c2-c2cc4ccnc(N[C@@H]5CCc6ncccc65)c4o2)S(=O)(=O)CC3C(C)C)o1 (stereo partly drawn) [Compound 90, N—(R)-4-aza-1-indanyl(2-(3-isopropyl-6-(5-methyl-1,3,4-oxadiazol-2-yl)-1,1-dioxo-5-[2-(tetrahydro-2H-pyran-4-yl)ethyl]-1λ^6-thia-4-aza-7-indanyl}-1-oxa-6-aza-7-indenyl)amine] | 1580 nM | 998 nM
8 | Cc1cc(-c2c(CCC3CCOCC3)nc3c(c2-c2cc4ccnc(N[C@@H]5CCc6ncccc65)c4s2)S(=O)(=O)CC3C(C)C)ccn1 (stereo partly drawn) [Compound 91, 7-(7-(((R)-6,7-dihydro-5H-cyclopenta[b]pyridin-5-yl)amino)thieno[2,3-c]pyridin-2-yl)-3-isopropyl-6-(2-methylpyridin-4-yl)-5-(2-(tetrahydro-2H-pyran-4-yl)ethyl)-2,3-dihydrothieno[3,2-b]pyridine 1,1-dioxide] | 499 nM | 45.2 nM
9 | Cc1nnc(-c2c(CC3CCOCC3)nc3c(c2-c2cc4ccnc(N[C@@H]5CCc6ncccc65)c4s2)S(=O)(=O)CC3C(C)C)o1 (stereo partly drawn) [Compound 96, N—(R)-4-aza-1-indanyl(2-(3-isopropyl-6-(5-methyl-1,3,4-oxadiazol-2-yl)-1,1-dioxo-5-[(tetrahydro-2H-pyran-4-yl)methyl]-1λ^6-thia-4-aza-7-indanyl}-1-thia-6-aza-7-indenyl)amine] | 1300 nM | 226 nM
10 | Cc1nnc(-c2c(CCC3CCOCC3)nc3c(c2-c2cc4ccnc(N[C@@H]5CCc6ncccc65)c4s2)S(=O)(=O)N2CCC[C@@H]32)o1 [Compound 81, (S)-4-(7-(((R)-6,7-dihydro-5H-cyclopenta[b]pyridin-5-yl)amino)thieno[2,3-c]pyridin-2-yl)-3-(5-methyl-1,3,4-oxadiazol-2-yl)-2-(2-(tetrahydro-2H-pyran-4-yl)ethyl)-7,8,9,9a-tetrahydropyrrolo[1′,2′:2,3]isothiazolo[4,5-b]pyridine 5,5-dioxide] | 325 nM | 7.5 nM
11 | Cc1cc(-c2c(CCC3CCOCC3)nc3c(c2-c2cc4ccnc(N[C@@H]5CCc6ncccc65)c4s2)S(=O)(=O)CC3C(C)C)ncn1 (stereo partly drawn) [Compound 92, N—(R)-4-aza-1-indanyl(2-(3-isopropyl-6-(6-methyl-4-pyrimidinyl)-1,1-dioxo-5-[2-(tetrahydro-2H-pyran-4-yl)ethyl]-1λ^6-thia-4-aza-7-indanyl}-1-thia-6-aza-7-indenyl)amine] | 540 nM | 117 nM
12 | Cc1nnc(-c2c(CCC3CCOC3)nc3c(c2-c2cc4ncnc(N[C@@H]5CCc6ncccc65)c4s2)S(=O)(=O)CC3C(C)C)o1 (stereo partly drawn) [Compound 99, N—(R)-4-aza-1-indanyl(2-(3-isopropyl-6-(5-methyl-1,3,4-oxadiazol-2-yl)-1,1-dioxo-5-[2-(tetrahydro-3-furyl)ethyl]-1λ^6-thia-4-aza-7-indanyl}-1-thia-4,6-diaza-7-indenyl)amine] | 1900 nM | 208 nM
13 | Cc1nnc(-c2c(CCC3CC(C)OC(C)C3)nc3c(c2-c2cc4ncnc(N[C@@H]5CCc6ncccc65)c4s2)S(=O)(=O)CC3C(C)C)o1 (stereo partly drawn) [Compound 98, N—(R)-4-aza-1-indanyl(2-(5-[2-(2,6-dimethyltetrahydro-2H-pyran-4-yl)ethyl]-3-isopropyl-6-(5-methyl-1,3,4-oxadiazol-2-yl)-1,1-dioxo-1λ^8-thia-4-aza-7-indanyl}-1-thia-4,6-diaza-7-indenyl)amine] | 352 nM | 39.2 nM
